Columns and labels:
NCI-H460 = experiment: Cell-counting assay, 72-h drug exposure; type: cell-based; details: Homo sapiens, read-out: Cell Growth Inhibitory Activity NCI-H460 IC50 72 h
Source text: (§1) For the cytotoxic activity studies and determination of GI50 concentrations in three different tumor cell lines, the cell culture conditions are described in Section 3.5. For the studies on the effect on % viable cells, cell cycle, cellular proliferation, and apoptosis, culture conditions are described in Section 3.6.1. For the remaining studies, the epithelial carcinoma cell line A431 and the non-small cell lung carcinoma cell line NCI-H460 were routinely grown in RPMI 1640 (Lonza, Vierviers, Belgium), supplemented with 10% (v/v) heat-inactivated fetal bovine serum (FBS, GIBCO, Invitrogen, Paisley, UK). The human peritoneal mesothelioma cell line STO was kindly provided by Dr. N. Zaffaroni (IRCCS Istituto Nazionale Tumori, Milan, Italy) and grown in 50/50 DMEM-Ham’s F12 medium (Lonza, Vierviers, Belgium), supplemented with 10% (v/v) heat-inactivated foetal bovine serum and 2 mM L-glutamine (L-Gln). All cell lines were maintained at 37 °C in a 5%/95% CO2/air atmosphere. All the compounds tested were freshly prepared by dissolving powder in dimethylsulfoxide (DMSO) (BDH Prolabo, Milan, Italy) and following dilution in culture medium. Cells were incubated with drugs for 48 h or 72 h (unless otherwise stated) at 37 °C in culture medium supplemented with 10% (v/v) heat-inactivated FBS; drug concentrations used for each assay and duration of treatments are reported in Legends to Figures.
(§2) Cellular sensitivity to drugs was evaluated by a cell-counting assay after 72-h drug exposure. Cells in the logarithmic phase of growth were seeded in duplicate into 6-well plates. Twenty-four hours after seeding, the drug was added to the medium. Cells were harvested 72 h after drug exposure and counted with a cell counter.

A431 = experiment: Cell-counting assay, 72-h drug exposure; type: cell-based; details: Homo sapiens, A-431, read-out: Cell Growth Inhibitory Activity A431 IC50 72 h
Source text: as §1, §2

STO = experiment: Cell-counting assay, 72-h drug exposure; type: cell-based; details: Homo sapiens, read-out: Cell Growth Inhibitory Activity STO IC50 72 h
Source text: as §1, §2

HSP90 = target: T1, HSP90 (Homo sapiens, UniProt P07900); experiment: HSP90 binding, fluorescence polarization with GM-FITC; details: displacement of GM-FITC 5 nM, 30 nM HSP90, 4 °C, 4 h; read-out: Binding HSP90 (FP) IC50
T1 construct: purchased Stressgen SPP-776
Protocol: GM-FITC Geldanamycin-fluorescein-5-isothiocyanate (working concentration: 1–400 nM), supplied by Invivogen (06C23-MT, San Diego, CA, USA), was previously dissolved in DMSO to obtain 10 mM stock solutions and kept at −20 °C until use. […] The compounds were previously dissolved in DMSO to obtain stock solutions and kept at −20 °C. The day of experiment, the compounds were prepared by serial dilutions in assay buffer (HFB) containing 20 mM HEPES (K) pH 7.3, 50 mM KCl, 5 mM MgCl2, 20 mM Na2MoO4 and 0.01% NP40. Before each use, 0.1 mg/mL Bovine Gamma globulin and 2 mM DTT were freshly added. […] The plate was mixed on a shaker at 4 °C for 4 h, and the FP values in mP (millipolarization units) were recorded. […] Curve fitting was performed using Prism GraphPad software program (GraphPad software, Inc., San Diego, CA, USA).

SMILES	IC50 (NCI-H460) [µM]	IC50 (A431) [µM]	IC50 (HSP90) [µM]	IC50 (STO) [µM]
O=C1c2ccccc2C(=O)c2c[n+](Cc3ccccc3)ccc21 [Compound 2a, 2-Benzyl-5,10-dioxo-5,10-dihydro-benzo[g]isoquinolinium bromide]	0.7 ± 0.01	0.2 ± 0.01	–	–
O=C1c2ccccc2C(=O)c2c[n+](Cc3ccc(F)cc3F)ccc21 [Compound 2b, 2-(2,4-Difluoro-benzyl)-5,10-dioxo-5,10-dihydro-benzo[g]isoquinolinium bromide]	3.2 ± 0.5	3.1 ± 0.5	–	–
O=c1c2ccccc2oc2cnccc12 [Compound 4, 5H-chromeno[2,3-c]pyridin-5-one]	> 50	> 50	> 100	> 50
O=c1c2ccccc2oc2c1ccc[n+]2Cc1ccccc1 [Compound 10, 1-Benzyl-10-oxo-10H-9-oxa-1-azonia-anthracene bromide]	> 50	> 50	> 100	> 50

Second part, led by results:

IC50 (NCI-H460) [µM]	IC50 (A431) [µM]	IC50 (HSP90) [µM]	SMILES	IC50 (STO) [µM]
–	0.46 ± 0.8	–	CC(C)(C)c1ccc(C[n+]2ccc3c(c2)C(=O)c2ccccc2C3=O)cc1 [Compound 2c, 2-(4-tert-Butyl-benzyl)-5,10-dioxo-5,10-dihydro-benzo[g]isoquinolinium bromide]	–
> 50	46.9	2.47 ± 0.09	O=c1c2ccccc2sc2cnccc12 [Compound 7]	46.9
0.01 ± 0.002	0.069 ± 0.005	–	C=CCNC1=C2C[C@@H](C)C[C@H](OC)[C@H](O)[C@@H](C)/C=C(\C)[C@H](OC(N)=O)[C@@H](OC)/C=C\C=C(/C)C(=O)NC(=CC1=O)C2=O [Compound 17-AAG, 17-N-allylamino-17-demethoxygeldanamycin, reference compound]	–

Source: publication PMC6017909, “Synthesis and Evaluation of the Tumor Cell Growth Inhibitory Potential of New Putative HSP90 Inhibitors” (Molecules : A Journal of Synthetic Chemistry and Natural …, 2018)
